Tested on: subjects with moderately to severely active RA who have an inadequate response to methotrexate (MTX)
Assay: Study 1 (add-on to MTX) - ACR responses (ACR20/50/70)
Format: in vivo, human
From the text: The terms “ACR20”, “ACR50” and “ACR70” as used herein are scores which indicate how much a patient's rheumatoid arthritis has improved according to criteria set out by the American College of Rheumatology (ACR). The ACR score represents a percentage. An ACR20 score means that a person's RA has improved by 20%, an ACR50 score means it has improved by 50%, and an ACR70 score means it has improved by 70%. Specifically, to qualify for an ACR20 score, a person with RA must have at least 20% fewer tender joints and at least 20% fewer swollen joints. In addition the patient must show a 20% improvement in at least three of the following five areas: the person's overall (global) assessment of his or her own RA, the physician's global assessment of the person's RA, the person's assessment of his or her own pain, the person's assessment of his or her own physical functioning, and the results of an erythrocyte sedimentation rate or C-reactive protein (CRP) blood test (both of which test for inflammation). ACR50 and ACR70 scores use the same criteria but require 50% and 70% improvement, respectively, (Felson et al., 1993). In the data presented herein the CRP blood test is used.
Double-blind, placebo-controlled add on study in subjects with moderately to severely active RA who have an inadequate response to methotrexate (MTX) (oral or parenteral).
595 subjects randomized to one of 6 dose regimens of Compound 1 (dosed as [Compound 1:HCl:3H2O]) (3 dose levels administered either once or twice daily) or placebo on top of each subject's stable dose of MTX.
Compound 1 (dosed as [Compound 1:HCl:3H2O]) is dosed for twelve weeks once daily (q.d.) (50 mg, 100 mg or 200 mg) or twice daily (b.i.d.) (25 mg, 50 mg or 100 mg); or placebo.
At Week 12, the subjects on placebo who have not achieved 20% improvement in swollen joint count (SJC66) and tender joint count (TJC68) are re-randomized automatically to receive Compound 1 (dosed as a [Compound 1:HCl:3H2O]) either at 100 mg q.d. or 50 mg b.i.d. doses in a blinded fashion; subjects on 50 mg q.d. who have not achieved 20% improvement in SJC66 and TJC68 will be assigned to 100 mg q.d. and subjects on 25 mg b.i.d. that have not achieved a 20% improvement in SJC66 and TJC68 will be assigned to 50 mg b.i.d. Subjects who switch treatment at week 12 are handled as if they discontinued at week 12 for the purpose of statistical analysis, whereas subjects in the other groups will maintain their randomized treatment until Week 24.
The American College of Rheumatology (ACR) composite score, which evaluates clinical improvement relative to an initial assessment, is a commonly accepted efficacy end point for clinical trials in patients with rheumatoid arthritis. The ACR score correspond to a percentage improvement in pre-set parameters, and therefore measures the evolution of the disease in a patient. For example, ACR20 denotes at least 20% improvement in tender and swollen joint counts and in three of the following end points: global assessment by the patient, global assessment by the doctor, C reactive protein (CRP), patient's pain Visual Analogue Scale and Health Assessment Questionnaire Score. The number of swollen joints, ESR and CRP correlate with radiographic progression of joint damage, whereas tender joint counts, as well as global assessments by doctors and patients, and patients' reports of pain, are sensitive to change in clinical outcomes. Physical function, as assessed by the Health Assessment Questionnaire Score, is a potent predictor of the risk of disability in rheumatoid arthritis (Felson and American College of Rheumatology Committee to Reevaluate Improvement Criteria, 2007; Felson et al., 1993).
In particular, the list of parameters used to assess ACR score can be found in the Table XCVI below and the results of the ACR responses at week 12 via either NRI or LOCF are shown in the tables below. The Hommel-corrected p-value for the pairwise comparisons of each group with placebo is shown. […]

[1] = 2 × 50 mg b.i.d., week 12, 12 weeks results
[2] = 2 × 50 mg b.i.d., week 12, 24 weeks results
[3] = 2 × 50 mg b.i.d., week 16, 24 weeks results
[4] = 2 × 50 mg b.i.d., week 20, 24 weeks results
[5] = 2 × 50 mg b.i.d., week 24, 24 weeks results
[6] = 2 × 50 mg b.i.d., at week 1, 12 weeks results
[7] = 2 × 50 mg b.i.d., at week 1, 24 weeks results
[8] = 2 × 100 mg b.i.d., week 2, 12 weeks results
[9] = 2 × 100 mg b.i.d., week 2, 24 weeks results
[10] = 2 × 100 mg b.i.d., week 4, 12 weeks results
[11] = 2 × 100 mg b.i.d., week 4, 24 weeks results
[12] = 2 × 100 mg b.i.d., week 8, 12 weeks results
[13] = 2 × 100 mg b.i.d., week 8, 24 weeks results
[14] = 2 × 100 mg b.i.d., week 12, 12 weeks results
[15] = 2 × 100 mg b.i.d., week 12, 24 weeks results
[16] = 2 × 100 mg b.i.d., week 16, 24 weeks results
[17] = 2 × 100 mg b.i.d., week 20, 24 weeks results
[18] = 2 × 100 mg b.i.d., week 24, 24 weeks results
[19] = 2 × 100 mg b.i.d., at week 1, 12 weeks results
[20] = 2 × 100 mg b.i.d., at week 1, 24 weeks results

SMILES: O=C(Nc1nc2cccc(-c3ccc(CN4CCS(=O)(=O)CC4)cc3)n2n1)C1CC1 [Compound 1, cyclopropanecarboxylic acid {5-[4-(1,1-dioxo-thiomorpholin-4-ylmethyl)-phenyl]-[1,2,4]triazolo[1,5-a]pyridin-2-yl}-amide]
- ACR70 (NRI) (2 × 50 mg b.i.d., week 8, 24 weeks results): 14.1%
- ACR20 (LOCF) [1]: 58.8%
- ACR20 (NRI) [1]: 58.8%
- ACR50 (LOCF) [1]: 34.1%
- ACR50 (NRI) [1]: 34.1%
- ACR70 (LOCF) [1]: 18.8%
- ACR70 (NRI) [1]: 18.8%
- ACR20 (LOCF) [2]: 60.0%
- ACR20 (NRI) [2]: 58.8%
- ACR50 (LOCF) [2]: 34.1%
- ACR50 (NRI) [2]: 34.1%
- ACR70 (LOCF) [2]: 18.8%
- ACR70 (NRI) [2]: 18.8%
- ACR20 (LOCF) [3]: 67.1%
- ACR20 (NRI) [3]: 64.7%
- ACR50 (LOCF) [3]: 32.9%
- ACR70 (LOCF) [3]: 21.2%
- ACR20 (LOCF) [4]: 68.2%
- ACR20 (NRI) [4]: 65.9%
- ACR50 (LOCF) [4]: 41.2%
- ACR70 (LOCF) [4]: 22.4%
- ACR20 (LOCF) [5]: 67.1%
- ACR20 (NRI) [5]: 60.0%
- ACR50 (LOCF) [5]: 38.8%
- ACR70 (LOCF) [5]: 24.7%
- ACR20 (LOCF) [6]: 22.4%
- ACR20 (NRI) [6]: 22.4%
- ACR50 (LOCF) [6]: 7.1%
- ACR50 (NRI) [6]: 7.1%
- ACR70 (LOCF) [6]: 2.4%
- ACR70 (NRI) [6]: 2.4%
- ACR20 (LOCF) [7]: 22.4%
- ACR20 (NRI) [7]: 22.4%
- ACR50 (LOCF) [7]: 7.1%
- ACR50 (NRI) [7]: 7.1%
- ACR70 (LOCF) [7]: 2.4%
- ACR70 (NRI) [7]: 2.4%
- ACR20 (LOCF) [8]: 53.6%
- ACR20 (NRI) [8]: 54.8%
- ACR50 (LOCF) [8]: 22.6%
- ACR50 (NRI) [8]: 21.4%
- ACR70 (LOCF) [8]: 4.8%
- ACR70 (NRI) [8]: 3.6%
- ACR20 (LOCF) [9]: 56.0%
- ACR20 (NRI) [9]: 54.8%
- ACR50 (LOCF) [9]: 22.6%
- ACR50 (NRI) [9]: 21.4%
- ACR70 (LOCF) [9]: 4.8%
- ACR70 (NRI) [9]: 3.6%
- ACR20 (LOCF) [10]: 67.9%
- ACR20 (NRI) [10]: 69.0%
- ACR50 (LOCF) [10]: 34.5%
- ACR50 (NRI) [10]: 35.7%
- ACR70 (LOCF) [10]: 9.5%
- ACR70 (NRI) [10]: 10.7%
- ACR20 (LOCF) [11]: 67.9%
- ACR20 (NRI) [11]: 67.9%
- ACR50 (LOCF) [11]: 34.5%
- ACR50 (NRI) [11]: 34.5%
- ACR70 (LOCF) [11]: 10.7%
- ACR70 (NRI) [11]: 10.7%
- ACR20 (LOCF) [12]: 75.0%
- ACR20 (NRI) [12]: 75.0%
- ACR50 (LOCF) [12]: 45.2%
- ACR50 (NRI) [12]: 45.2%
- ACR70 (LOCF) [12]: 26.2%
- ACR70 (NRI) [12]: 27.4%
- ACR20 (LOCF) [13]: 75.0%
- ACR20 (NRI) [13]: 75.0%
- ACR50 (LOCF) [13]: 45.2%
- ACR50 (NRI) [13]: 45.2%
- ACR70 (LOCF) [13]: 27.4%
- ACR70 (NRI) [13]: 27.4%
- ACR20 (LOCF) [14]: 79.8%
- ACR20 (NRI) [14]: 79.8%
- ACR50 (LOCF) [14]: 56.0%
- ACR50 (NRI) [14]: 54.8%
- ACR70 (LOCF) [14]: 29.8%
- ACR70 (NRI) [14]: 31.0%
- ACR20 (LOCF) [15]: 81.0%
- ACR20 (NRI) [15]: 79.8)
- ACR50 (LOCF) [15]: 57.1%
- ACR50 (NRI) [15]: 54.8%
- ACR70 (LOCF) [15]: 31.0%
- ACR70 (NRI) [15]: 31.0%
- ACR20 (LOCF) [16]: 84.5%
- ACR20 (NRI) [16]: 82.1%
- ACR50 (LOCF) [16]: 64.3%
- ACR70 (LOCF) [16]: 36.9%
- ACR20 (LOCF) [17]: 88.1%
- ACR20 (NRI) [17]: 84.5%
- ACR50 (LOCF) [17]: 61.9%
- ACR70 (LOCF) [17]: 36.9%
- ACR20 (LOCF) [18]: 86.9%
- ACR20 (NRI) [18]: 79.8%
- ACR50 (LOCF) [18]: 61.9%
- ACR70 (LOCF) [18]: 42.9%
- ACR20 (LOCF) [19]: 33.3%
- ACR20 (NRI) [19]: 34.5%
- ACR50 (LOCF) [19]: 7.1%
- ACR50 (NRI) [19]: 7.1%
- ACR70 (LOCF) [19]: 4.8%
- ACR70 (NRI) [19]: 4.8%
- ACR20 (LOCF) [20]: 34.5%
- ACR20 (NRI) [20]: 34.5%
- ACR50 (LOCF) [20]: 7.1%
- ACR50 (NRI) [20]: 7.1%
- ACR70 (LOCF) [20]: 4.8%
- ACR70 (NRI) [20]: 4.8%
